US20230071463A1, “SOLID STATE FORMS OF […] AND PROCESS FOR PREPARATION THEREOF” (TEVA PHARMACEUTICALS INTERNATIONAL GMBH, priority 2020, published 2023)

Legend:
[1] = Solid state stability on exposure to high relative humidity; assay type: physicochemical
[2] = Solid state stability on exposure to high temperatures and high relative humidity; assay type: physicochemical

Row | Compound | stability when exposed to high relative humidity [1] | stability when exposed to high temperatures and high relative humidity [2]
1 | [Cl][Mn-5]1234([Cl])[n+]5c6cccc5C[NH+]1[C@H]1CCCC[C@@H]1[NH+]2CC[NH+]3[C@H]1CCCC[C@@H]1[NH+]4C6 (some centres unmarked) [Form AM1, Avasopasem manganese] | stable | 
2 | [Cl][Mn-5]1234([Cl])[n+]5c6cccc5C[NH+]1[C@H]1CCCC[C@@H]1[NH+]2CC[NH+]3[C@H]1CCCC[C@@H]1[NH+]4C6 (some centres unmarked) [Form AM2, Avasopasem manganese] |  | stable
